Reference: PubChem BioAssay (NCI)
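Cultured in 96-well plates, cells were exposed to test compound for 48 hours across five concentrations. The concentration for 50% growth inhibition is given as GI50. TGI is the concentration that stops growth completely.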

Legend:
Experiment in all cases: NCI anticancer screen, dose series, 48 h
SK-MEL-2 melanoma = tested on: SK-MEL-2 melanoma
TK-10 renal = tested on: TK-10 renal
HCT-15 colon = tested on: HCT-15 colon
COLO 205 colon = tested on: COLO 205 colon
EKVX NSCLC = tested on: EKVX NSCLC
OVCAR-8 ovarian = tested on: OVCAR-8 ovarian
SNB-75 CNS = tested on: SNB-75 CNS
LOX IMVI melanoma = tested on: LOX IMVI melanoma
NCI-H460 lung = tested on: NCI-H460 lung
NCI/ADR-RES ovarian = tested on: NCI/ADR-RES ovarian

| Compound | TGI (SK-MEL-2 melanoma) [µM] | TGI (TK-10 renal) [µM] | TGI (HCT-15 colon) [µM] | TGI (COLO 205 colon) [µM] | TGI (EKVX NSCLC) [µM] | TGI (OVCAR-8 ovarian) [µM] | TGI (SNB-75 CNS) [µM] | TGI (LOX IMVI melanoma) [µM] | TGI (NCI-H460 lung) [µM] | GI50 (SK-MEL-2 melanoma) [µM] | GI50 (TK-10 renal) [µM] | GI50 (HCT-15 colon) [µM] | GI50 (COLO 205 colon) [µM] | GI50 (OVCAR-8 ovarian) [µM] | GI50 (SNB-75 CNS) [µM] | GI50 (NCI/ADR-RES ovarian) [µM] | TGI (NCI/ADR-RES ovarian) [µM] | GI50 (NCI-H460 lung) [µM] | GI50 (LOX IMVI melanoma) [µM] | GI50 (EKVX NSCLC) [µM] |
| --- | --- | --- | --- | --- | --- | --- | --- | --- | --- | --- | --- | --- | --- | --- | --- | --- | --- | --- | --- | --- |
| CCOP(=O)(OCC)/C(C#N)=C/c1ccco1 | > 100 | > 100 | > 100 | > 100 | > 100 | > 100 | > 100 | > 100 | > 100 | – | – | – | – | – | – | – | – | – | – | – |
| CCOC(=O)c1ccc(N2C(=O)/C(=C\OC)c3ccccc3C2=O)cc1 | > 100 | > 100 | > 100 | > 100 | > 100 | > 100 | > 100 | – | – | – | – | – | – | – | – | – | – | – | – | – |
| CC1NOC(=O)C1N=Nc1ccccc1Cl (centres undefined) | > 100 | > 100 | – | > 100 | > 100 | > 100 | 62.4 | > 100 | > 100 | – | – | – | – | – | – | – | – | – | – | – |
| CC(=O)/C=C/c1ccc(C2CC(C)=Nc3c(ccc4c3C(=O)c3ccccc3C4=O)N2)cc1 (centres undefined) | > 100 | > 100 | > 100 | > 100 | > 100 | > 100 | > 100 | > 100 | > 100 | – | – | – | – | – | – | – | – | – | – | – |
| C[C@]12CC[C@@H]3c4ccc(O)cc4CC[C@H]3[C@@H]1CC[C@@H]2NS(=O)(=O)Cc1ccc(Cl)cc1 | 6.35 | 14.9 | 7.76 | 3.27 | – | 7.58 | 9.75 | – | 5.31 | 2.54 | 3.5 | 2.33 | 1.81 | 2.52 | 2.08 | 2.69 | 10.7 | 2.23 | – | – |
| CS(=O)c1ccc(COP(N)(=O)N(CCCl)CCCl)cc1 (centres undefined) | > 100 | > 100 | – | > 100 | > 100 | > 100 | > 100 | > 100 | > 100 | – | – | – | – | – | – | – | – | – | – | – |
| ON=C1CCC(c2ccccc2)CC1 (centres undefined) | > 100 | > 100 | > 100 | > 100 | > 100 | > 100 | > 100 | > 100 | > 100 | – | – | – | – | – | – | – | – | – | – | – |
| S=C(N/N=C/c1ccccn1)Nc1ccccn1 | 9.74 | > 100 | > 100 | > 100 | – | > 100 | – | 23.1 | 12.6 | 2.35 | 2.93 | 0.575 | 0.471 | 0.671 | – | 1.74 | > 100 | 0.962 | 0.705 | – |
| COC(=O)c1nc(NC#N)[nH]c(=O)c1C | > 100 | > 100 | > 100 | > 100 | > 100 | > 100 | > 95.4 | > 100 | > 100 | – | – | – | – | – | – | – | – | – | – | – |
| CCOC(=O)C1C(=O)c2ccccc2CN1Cc1ccccc1 (centres undefined) | > 100 | > 100 | > 100 | > 100 | > 100 | > 100 | > 100 | > 100 | > 100 | – | – | – | – | – | – | – | – | – | – | – |
| COc1ccc(/C=C2/C[N+](C)(C)C/C(=C/c3ccc(OC)cc3)C2=O)cc1 | 71.7 | > 100 | > 100 | 40.8 | > 100 | > 100 | > 100 | > 100 | > 100 | – | – | – | – | – | – | – | – | – | – | – |
| O=C(c1ccccc1)c1c(C(=O)c2ccccc2)c(-c2ccccc2)c2c(-c3ccccc3)sc(-c3ccccc3)c2c1-c1ccccc1 | – | > 100 | > 100 | > 100 | > 100 | > 100 | > 100 | > 100 | > 100 | – | – | – | – | – | – | – | – | – | – | – |
| O=c1cc2ccccc2nn1-c1ccccc1Cl | > 100 | > 100 | > 100 | > 100 | > 100 | > 100 | > 100 | > 100 | > 100 | – | – | – | – | – | – | – | – | – | – | – |
| CC[N+](CC)(CC)CCCn1c2c(c3ccccc3c1=O)C(=O)c1ccccc1-2 | 53.4 | > 100 | > 100 | > 100 | – | 22.8 | > 100 | > 100 | 4.49 | 21.8 | 1.01 | 4.97 | 23.1 | 3.66 | 80 | 6.5 | 27.2 | 1.85 | 4.63 | – |
| O=C([CH-]C(=O)c1ccccc1)c1ccccc1.O=C([CH-]C(=O)c1ccccc1)c1ccccc1.[Nd+3].[OH-].[OH3+] | 27 | > 100 | 34.1 | 31.4 | 43.8 | 38.4 | 7.25 | – | 25.3 | 9.48 | 26.4 | 8.5 | 13.9 | 4.74 | 2.49 | – | – | 6.18 | – | 9.99 |
| COC(=O)c1ccc(N=NN(C)CO)cc1 | > 100 | > 100 | > 100 | > 100 | > 100 | > 100 | > 100 | > 100 | > 100 | – | – | – | – | – | – | – | – | – | – | – |
| C=C1CC[C@@H]2C(C)(C)CCC[C@@]2(C)[C@@H]1Cc1cc(O)ccc1O | 6.39 | 8.77 | 12.3 | 31.4 | 29 | 15.1 | 7.14 | 5.35 | 33.4 | – | – | – | – | – | – | – | – | – | – | – |
| CCOC(=O)C(=O)Nc1c(N(CC)CC)n2ccccc2nc1=O | > 100 | – | > 100 | > 100 | > 100 | > 100 | > 100 | – | > 100 | – | – | – | – | – | – | – | – | – | – | – |
| CC(NNC(=S)N1CCCCCC1)c1ccc2ccccc2n1 (centres undefined) | 41.5 | 21 | 51.6 | 19 | – | > 58.7 | 27.5 | 15.5 | > 78.9 | 13.8 | 1.21 | 1.06 | 0.284 | 1.06 | 12.5 | 2.29 | > 100 | 1.05 | 2.56 | – |
| O=C(O)c1cc2c(cn1)[nH]c1ccccc12 | – | > 100 | > 100 | > 100 | > 100 | > 100 | > 100 | > 100 | > 100 | – | – | – | – | – | – | – | – | – | – | – |
| COc1ccc2ccc([Se]c3ccc4ccc(OC)cc4c3)cc2c1 | > 100 | > 100 | > 100 | > 100 | – | 98.2 | 76.8 | > 100 | > 100 | – | – | – | – | – | – | – | – | – | – | – |
